From US10323036B2 (Nimbus Lakshmi, Inc., priority 2016, dated 2019) come the findings set out here.

The test deals with human TYK2 (JH2domain-pseudokinase) (Homo sapiens (Human), UniProt P29597). Description: TYK2 JH2 Domain Binding Assay (KINOMEscan). To be noted: Table 4, JH2 binding assay; read-out: JH2 Kd.
Chain of human TYK2 (JH2domain-pseudokinase) (P29597 556-888): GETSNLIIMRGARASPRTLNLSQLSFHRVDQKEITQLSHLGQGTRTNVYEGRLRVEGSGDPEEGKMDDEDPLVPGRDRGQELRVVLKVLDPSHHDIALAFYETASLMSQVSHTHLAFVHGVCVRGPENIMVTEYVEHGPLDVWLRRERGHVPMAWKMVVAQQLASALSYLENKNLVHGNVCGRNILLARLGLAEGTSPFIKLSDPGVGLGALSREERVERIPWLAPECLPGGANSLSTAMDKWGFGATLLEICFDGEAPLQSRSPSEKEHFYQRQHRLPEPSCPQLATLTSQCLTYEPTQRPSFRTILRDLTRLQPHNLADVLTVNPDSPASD
As to `Cn1[nH]c2nc(Nc3cccc(C(F)(F)F)n3)cc(Nc3ccc(Cl)cc3S(C)(=O)=O)c2c1=O` [Compound I-209, 4-((4-chloro-2-(methylsulfonyl)phenyl)amino)-2-methyl-6-((6-(trifluoromethyl)-pyridin-2-yl)amino)-1,2-dihydro-3H-pyrazolo[3,4-b]pyridin-3-one], the Kd was 0.5 to 1 nM.

For the compound `Cn1[nH]c2nc(NC(=O)[C@@H]3C[C@@H]3F)cc(Nc3ccc(C4CC4)cc3S(C)(=O)=O)c2c1=O` [Compound I-210], the Kd fell in the range of 0.1 to 0.5 nM.

`Cc1ncc(Nc2cc(Nc3ccc(C4CC4)cc3S(C)(=O)=O)c3c(=O)n(C)[nH]c3n2)nc1C` [Compound I-211, 4-((4-cyclopropyl-2-(methylsulfonyl)phenyl)amino)-6-((5,6-dimethylpyrazin-2-yl)amino)-2-methyl-1,2-dihydro-3H-pyrazolo[3,4-b]pyridin-3-one]: the Kd lay in the range of 0.5 to 1 nM.

As to `Cn1[nH]c2nc(Nc3cncc(C#N)n3)cc(Nc3ccc(C4CC4)cc3S(C)(=O)=O)c2c1=O` [Compound I-212, 6-((4-((4-cyclopropyl-2-(methylsulfonyl)phenyl)amino)-2-methyl-3-oxo-2,3-dihydro-1H-pyrazolo[3,4-b]pyridin-6-yl)amino)pyrazine-2-carbonitrile], the Kd is over 10 nM.

Take `Cn1[nH]c2nc(Nc3ccc(C#N)cn3)cc(Nc3ccc(C4CC4)cc3S(C)(=O)=O)c2c1=O` [Compound I-213, 6-((4-((4-cyclopropyl-2-(methylsulfonyl)phenyl)amino)-2-methyl-3-oxo-2,3-dihydro-1H-pyrazolo[3,4-b]pyridin-6-yl)amino)nicotinonitrile]: the Kd lay within 0.1 to 0.5 nM.

On to `COCc1ccnc(Nc2cc(Nc3ccc(C4CC4)cc3S(C)(=O)=O)c3c(=O)n(C)[nH]c3n2)c1` [Compound I-214, 4-((4-cyclopropyl-2-(methylsulfonyl)phenyl)amino)-6-((4-(methoxymethyl)pyridin-2-yl)amino)-2-methyl-1,2-dihydro-3H-pyrazolo[3,4-b]pyridin-3-one], for which the Kd was 0.1 to 0.5 nM.

In the case of `Cn1[nH]c2nc(Nc3cccc(C(F)(F)F)n3)cc(Nc3ccc(C4CC4)cc3S(C)(=O)=O)c2c1=O` [Compound I-215, 4-((4-cyclopropyl-2-(methylsulfonyl)phenyl)amino)-2-methyl-6-((6-(trifluoromethyl)pyridin-2-yl)amino)-1,2-dihydro-3H-pyrazolo[3,4-b]pyridin-3-one], the Kd is 0.1 to 0.5 nM.

Turning to `CN(c1ccccc1Nc1cc(NC(=O)[C@@H]2C[C@@H]2F)nc2[nH]n(C)c(=O)c12)S(C)(=O)=O` [Compound I-216, (1S,2S)-2-fluoro-N-(2-methyl-4-((2-(N-methylmethylsulfonamido)phenyl)amino)-3-oxo-2,3-dihydro-1H-pyrazolo[3,4-b]pyridin-6-yl)cyclopropane-1-carboxamide], the Kd lay within 0.1 to 0.5 nM.

In the case of `CCc1ccc(Nc2cc(NC(=O)C3CC3)nc3[nH]n(C)c(=O)c23)c(N(C)S(C)(=O)=O)c1` [Compound I-217, N-(4-((4-ethyl-2-(N-methylmethylsulfonamido)phenyl)amino)-2-methyl-3-oxo-2,3-dihydro-1H-pyrazolo[3,4-b]pyridin-6-yl)cyclopropanecarboxamide], the Kd was under 0.1 nM.

With `COCc1ccc(Nc2cc(NC(=O)C3CC3)nc3[nH]n(C)c(=O)c23)c(N(C)S(C)(=O)=O)c1` [Compound I-218], the Kd was under 0.1 nM.

As for `CN(c1cc(N2CCC2)ccc1Nc1cc(NC(=O)C2CC2)nc2[nH]n(C)c(=O)c12)S(C)(=O)=O` [Compound I-219, N-(4-((4-(azetidin-1-yl)-2-(N-methylmethylsulfonamido)phenyl)amino)-2-methyl-3-oxo-2,3-dihydro-1H-pyrazolo[3,4-b]pyridin-6-yl)cyclopropanecarboxamide], the Kd was 0.1 to 0.5 nM.

As for `COC1CN(c2ccc(Nc3cc(NC(=O)C4CC4)nc4[nH]n(C)c(=O)c34)c(N(C)S(C)(=O)=O)c2)C1` [Compound I-220, N-(4-((4-(3-methoxyazetidin-1-yl)-2-(N-methylmethylsulfonamido)phenyl)amino)-2-methyl-3-oxo-2,3-dihydro-1H-pyrazolo[3,4-b]pyridin-6-yl)cyclopropane-carboxamide], the Kd fell in the range of 0.1 to 0.5 nM.

As for `COc1c(Cl)cccc1Nc1cc(Nc2cc3n(n2)CCOC3)nc2[nH]n(C)c(=O)c12` [Compound I-221, 4-((3-chloro-2-methoxyphenyl)amino)-6-((6,7-dihydro-4H-pyrazolo[5,1-c][1,4]oxazin-2-yl)amino)-2-methyl-1,2-dihydro-3H-pyrazolo[3,4-b]pyridin-3-one], the Kd was in the range of 0.1 to 0.5 nM.

In the case of `COc1c(Cl)cccc1Nc1cc(Nc2cc3n(n2)CCCC3)nc2[nH]n(C)c(=O)c12` [Compound I-222, 4-((3-chloro-2-methoxyphenyl)amino)-2-methyl-6-((4,5,6,7-tetrahydropyrazolo[1,5-a]pyridin-2-yl)amino)-1,2-dihydro-3H-pyrazolo[3,4-b]pyridin-3-one], the Kd lay within 1 to 10 nM.

As to `COc1cccnc1Nc1cc(NC(=O)C2CC2)nc2[nH]n(C)c(=O)c12` [Compound I-223, N-(4-((3-methoxypyridin-2-yl)amino)-2-methyl-3-oxo-2,3-dihydro-1H-pyrazolo[3,4-b]pyridin-6-yl)cyclopropanecarboxamide], the Kd lay within 1 to 10 nM.

Turning to `CN(c1ccccc1Nc1cc(Nc2cnc3c(n2)CCC3)nc2[nH]n(C)c(=O)c12)S(C)(=O)=O` [Compound I-225, N-(2-((6-((6,7-dihydro-5H-cyclopenta[b]pyrazin-2-yl)amino)-2-methyl-3-oxo-2,3-dihydro-1H-pyrazolo[3,4-b]pyridin-4-yl)amino)phenyl)-N-methylmethanesulfonamide], the Kd is under 0.1 nM.

As for `CN(c1ccccc1Nc1cc(Nc2cc3c(cn2)OCC3)nc2[nH]n(C)c(=O)c12)S(C)(=O)=O` [Compound I-226, N-(2-((6-((2,3-dihydrofuro[2,3-c]pyridin-5-yl)amino)-2-methyl-3-oxo-2,3-dihydro-1H-pyrazolo[3,4-b]pyridin-4-yl)amino)phenyl)-N-methylmethanesulfonamide], the dissociation constant Kd is 0.1 to 0.5 nM.

Take `CN(c1ccccc1Nc1cc(Nc2cc3c(cn2)COC3)nc2[nH]n(C)c(=O)c12)S(C)(=O)=O` [Compound I-227, N-(2-((6-((1,3-dihydrofuro[3,4-c]pyridin-6-yl)amino)-2-methyl-3-oxo-2,3-dihydro-1H-pyrazolo[3,4-b]pyridin-4-yl)amino)phenyl)-N-methylmethanesulfonamide]: the Kd was under 0.1 nM.

For the compound `CN(c1cc(Cl)ccc1Nc1cc(NC(=O)C2CC2)nc2[nH]n(C)c(=O)c12)S(C)(=O)=O` [Compound I-228, N-(4-((4-chloro-2-(N-methylmethylsulfonamido)phenyl)amino)-2-methyl-3-oxo-2,3-dihydro-1H-pyrazolo[3,4-b]pyridin-6-yl)cyclopropanecarboxamide], the Kd fell in the range of 0.1 to 0.5 nM.

Take `Cc1ccc(Nc2cc(NC(=O)C3CC3)nc3[nH]n(C)c(=O)c23)c(N(C)S(C)(=O)=O)c1` [Compound I-229, N-(2-methyl-4-((4-methyl-2-(N-methylmethylsulfonamido)phenyl)amino)-3-oxo-2,3-dihydro-1H-pyrazolo[3,4-b]pyridin-6-yl)cyclopropanecarboxamide]: the Kd is under 0.1 nM.

One may read the Kd as the equilibrium constant for the complex coming apart.
